In patent US10196390B2, “TYK2 inhibitors and uses thereof” (Nimbus Lakshmi, Inc., priority 2014, dated 2019):

What was measured:
JAK2 = JAK2 (Homo sapiens (Human), UniProt O60674); test: JAK2 activity inhibition assay (radioactive kinase assay / Caliper assay); assay type: biochemical; details: read-out: JAK2 Ki
How it was run: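 Reaction ran 25 min at 28° C after adding peptide/ATP mix (10 mM MgCl2) to compound and enzyme in HEPES pH 7.5 buffer with Brij-35, Triton and EGTA. EDTA stop, then microfluidic off-chip separation quantified phosphorylated peptide.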

JAK2-pSTAT5 = test: GM-CSF induced pSTAT5 in human PBMC; assay type: cell-based; details: Homo sapiens, PBMC, read-out: JAK2-pSTAT5 EC50
IL-12/IL-18 induced IFNγ = test: Acute mouse model for IL-12/IL-18 induced IFNγ in serum; assay type: in vivo, C57BL/6 mice; details: in mice, efficacious dose of 30 mg/kg SC
Protocol: C57BL/6 mice mice are dosed PO or SC with test compound at various doses or vehicle (n=9 or 10 per group) and then, 30 minutes later, injected IP with 10 ng IL-12 and 1 μg IL-18. Three hours after IL-12/IL-18 injection, mice were bled and serum isolated. Concentration of cytokines in serum were determined using CBA analysis.

TYK2 = TYK2 (Homo sapiens (Human), UniProt P29597); test: Tyk2 activity inhibition assay (radioactive kinase assay / Caliper assay); assay type: biochemical
How it was run: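 Two formats were used. Caliper off-chip mobility shift read phosphorylated peptide 30 (3 uM) after 25 min at 28° C with 9.75 nM TYK2 and ATP at 16 uM or 1 mM. Radioactive assay: 10 μM 33P-ATP, 20 μM peptide, 120 min room temp, P81 filter counting.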

Tyk2-pSTAT4 = test: IL-12 induced pSTAT4 in human PBMC; assay type: cell-based; details: Homo sapiens, PBMC, read-out: Tyk2-pSTAT4 EC50
How it was run: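 PBMC (200,000 cells/well) in serum-containing medium were preincubated with compound for 1 hr at 37 C, final DMSO 0.1%. Stimulation with 1.7 ng/mL IL-12 (final) for 30 minutes. pSTAT4 and total STAT4 were measured in lysates by MSD.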

Chain of JAK2 (O60674 whole entry): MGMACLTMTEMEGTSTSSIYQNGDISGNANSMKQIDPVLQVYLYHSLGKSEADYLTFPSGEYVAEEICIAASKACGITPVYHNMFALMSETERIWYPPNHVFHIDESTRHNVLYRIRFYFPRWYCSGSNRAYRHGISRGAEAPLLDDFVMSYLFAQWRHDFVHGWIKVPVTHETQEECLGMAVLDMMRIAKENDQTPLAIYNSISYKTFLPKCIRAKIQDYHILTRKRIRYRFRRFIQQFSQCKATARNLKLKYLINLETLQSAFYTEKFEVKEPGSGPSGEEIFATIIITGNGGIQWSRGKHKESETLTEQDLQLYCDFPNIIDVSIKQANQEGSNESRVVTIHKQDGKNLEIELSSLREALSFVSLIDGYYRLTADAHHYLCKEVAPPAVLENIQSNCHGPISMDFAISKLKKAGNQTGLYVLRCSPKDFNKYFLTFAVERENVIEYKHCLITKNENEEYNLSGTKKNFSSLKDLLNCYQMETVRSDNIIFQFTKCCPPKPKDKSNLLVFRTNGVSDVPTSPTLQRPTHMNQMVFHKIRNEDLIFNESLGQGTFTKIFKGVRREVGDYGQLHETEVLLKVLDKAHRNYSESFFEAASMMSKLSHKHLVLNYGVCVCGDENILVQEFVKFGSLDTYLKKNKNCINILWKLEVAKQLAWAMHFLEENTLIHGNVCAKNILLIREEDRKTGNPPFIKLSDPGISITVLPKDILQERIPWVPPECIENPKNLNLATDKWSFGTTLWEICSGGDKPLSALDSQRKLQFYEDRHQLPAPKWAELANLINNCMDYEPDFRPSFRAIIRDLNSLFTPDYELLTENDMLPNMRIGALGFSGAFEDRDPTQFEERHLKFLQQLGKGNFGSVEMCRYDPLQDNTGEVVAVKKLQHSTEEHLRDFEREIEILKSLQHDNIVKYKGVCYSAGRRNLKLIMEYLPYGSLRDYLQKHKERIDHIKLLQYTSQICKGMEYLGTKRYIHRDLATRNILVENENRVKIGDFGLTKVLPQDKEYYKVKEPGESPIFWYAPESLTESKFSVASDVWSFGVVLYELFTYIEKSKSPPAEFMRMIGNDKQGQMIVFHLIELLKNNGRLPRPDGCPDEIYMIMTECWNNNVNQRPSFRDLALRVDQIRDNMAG
Chain of TYK2 (P29597 whole entry): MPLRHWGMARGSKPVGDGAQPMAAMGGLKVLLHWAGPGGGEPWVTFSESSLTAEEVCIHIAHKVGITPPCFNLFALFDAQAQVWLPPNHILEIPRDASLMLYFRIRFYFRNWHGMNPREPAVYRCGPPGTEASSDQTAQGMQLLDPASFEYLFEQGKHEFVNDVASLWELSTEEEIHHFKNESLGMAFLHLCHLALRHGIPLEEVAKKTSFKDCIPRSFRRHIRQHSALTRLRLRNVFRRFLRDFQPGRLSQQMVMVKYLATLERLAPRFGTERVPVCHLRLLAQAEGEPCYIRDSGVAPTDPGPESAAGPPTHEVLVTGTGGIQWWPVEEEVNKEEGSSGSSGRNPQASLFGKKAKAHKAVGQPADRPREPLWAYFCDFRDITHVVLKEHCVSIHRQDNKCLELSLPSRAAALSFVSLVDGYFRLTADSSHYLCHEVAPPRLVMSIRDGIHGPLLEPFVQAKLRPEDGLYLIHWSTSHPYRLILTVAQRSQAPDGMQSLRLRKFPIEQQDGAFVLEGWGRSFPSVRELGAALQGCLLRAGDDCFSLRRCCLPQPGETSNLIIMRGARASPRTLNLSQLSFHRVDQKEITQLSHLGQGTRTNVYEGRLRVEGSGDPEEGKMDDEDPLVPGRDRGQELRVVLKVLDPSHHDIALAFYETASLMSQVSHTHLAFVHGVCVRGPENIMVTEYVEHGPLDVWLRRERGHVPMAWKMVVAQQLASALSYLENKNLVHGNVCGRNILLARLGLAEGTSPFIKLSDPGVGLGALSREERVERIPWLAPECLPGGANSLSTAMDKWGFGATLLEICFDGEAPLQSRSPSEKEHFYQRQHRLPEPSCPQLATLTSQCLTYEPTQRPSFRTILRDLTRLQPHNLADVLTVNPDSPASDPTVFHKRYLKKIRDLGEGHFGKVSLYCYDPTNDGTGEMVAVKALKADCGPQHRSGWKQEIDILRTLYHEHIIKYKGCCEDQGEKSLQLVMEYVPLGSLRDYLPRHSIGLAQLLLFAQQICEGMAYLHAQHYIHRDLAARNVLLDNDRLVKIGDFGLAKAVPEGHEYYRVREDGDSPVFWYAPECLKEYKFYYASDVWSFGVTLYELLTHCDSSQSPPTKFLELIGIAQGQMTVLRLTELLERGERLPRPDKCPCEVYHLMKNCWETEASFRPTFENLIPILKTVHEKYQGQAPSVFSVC

With `CCNC(=O)Cc1ccc(Nc2nc(-c3c(F)cccc3F)nc3c2C(=O)NC3)cc1` [Compound I-80, 2-(4-((2-(2,6-difluorophenyl)-5-oxo-6,7-dihydro-5H-pyrrolo[3,4-d]pyrimidin-4-yl)amino)phenyl)-N-ethylacetamide] the Ki (JAK2) was 100 to 1000 nM, the EC50 (JAK2-pSTAT5) was greater than 20000 nM and the “IL-12/IL-18 induced IFNγ production in vivo” value (IL-12/IL-18 induced IFNγ) was “inhibited”. For the same compound, the Ki (TYK2) was less than 10 nM and the EC50 (Tyk2-pSTAT4) was less than 2000 nM.
